According to ChEMBL document CHEMBL1145488, “Transient loss of high-level mupirocin resistance in Staphylococcus aureus due to MupA polymorphism” (2007):
In brackets after ≈: the same amount, converted by molar mass.

Columns and labels:
Type in all cases: functional
[1] = tested on: Staphylococcus aureus; test: Antibacterial activity against Staphylococcus aureus with ileS gene mutation
[2] = tested on: Staphylococcus aureus; test: Antibacterial activity against Staphylococcus aureus J2870 with mupA gene mutation
[3] = tested on: Staphylococcus aureus; test: Antibacterial activity against Staphylococcus aureus MB1348 with mupA gene mutation by Etest
[4] = tested on: Staphylococcus aureus; test: Antibacterial activity against Staphylococcus aureus MB1348 with mupA gene mutation by broth microdilution

Compound: C/C(=C\C(=O)OCCCCCCCCC(=O)O)C[C@@H]1OC[C@H](C[C@@H]2O[C@H]2[C@@H](C)[C@H](C)O)[C@@H](O)[C@H]1O [MUPIROCIN]
- MIC [1]: 8 µg/mL (≈ 16 µM)
- MIC [2]: ≥ 512 µg/mL
- MIC [3]: > 256 µg/mL
- MIC [4]: 0.25 µg/mL (≈ 0.499 µM)
